From patent publication US10479780B2, “Aminopyrazole derivatives” (Chugai Seiyaku Kabushiki Kaisha, priority 2015, dated 2019)

Legend:
Type in all cases: biochemical
human Yes1 enzyme = biological target: T1, human Yes1 enzyme (Homo sapiens, UniProt P07947); assay: Yes1 enzyme inhibitory activity (time-resolved fluorometry, biotinylated peptide phosphorylation); conditions: read-out: YES_IC50
T1 construct: made in house
Summary of the method: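 Inhibition was expressed against a compound-free control to give IC50, using TR-FRET read-out (Eu-cryptate anti-pTyr antibody, streptavidin-XL665).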

human Src enzyme = biological target: T2, human Src enzyme (Homo sapiens, UniProt P12931); assay: Src enzyme inhibitory activity (time-resolved fluorometry, biotinylated peptide phosphorylation); conditions: read-out: SRC_IC50
T2 construct: purchased Carna Biosciences, Inc. 08-173
Summary of the method: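 Compounds were tested for blocking tyrosine phosphorylation of a biotinylated peptide substrate by recombinant human Src. Phosphorylated product was quantified by time-resolved fluorometry using europium cryptate and XL665 conjugates, and IC50 was calculated against the compound-free control.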

human Lck enzyme = biological target: T3, human Lck enzyme (Homo sapiens, UniProt P06239); assay: Lck enzyme inhibitory activity (time-resolved fluorometry, biotinylated peptide phosphorylation); conditions: read-out: LCK_IC50
T3 construct: purchased Carna Biosciences, Inc. 08-170
Summary of the method: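 Readout pairs a europium cryptate-labelled anti-phosphotyrosine antibody with XL665-streptavidin, measured by time-resolved fluorescence. IC50 derived from percent inhibition against untreated controls.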

T1 sequence (P07947 whole entry): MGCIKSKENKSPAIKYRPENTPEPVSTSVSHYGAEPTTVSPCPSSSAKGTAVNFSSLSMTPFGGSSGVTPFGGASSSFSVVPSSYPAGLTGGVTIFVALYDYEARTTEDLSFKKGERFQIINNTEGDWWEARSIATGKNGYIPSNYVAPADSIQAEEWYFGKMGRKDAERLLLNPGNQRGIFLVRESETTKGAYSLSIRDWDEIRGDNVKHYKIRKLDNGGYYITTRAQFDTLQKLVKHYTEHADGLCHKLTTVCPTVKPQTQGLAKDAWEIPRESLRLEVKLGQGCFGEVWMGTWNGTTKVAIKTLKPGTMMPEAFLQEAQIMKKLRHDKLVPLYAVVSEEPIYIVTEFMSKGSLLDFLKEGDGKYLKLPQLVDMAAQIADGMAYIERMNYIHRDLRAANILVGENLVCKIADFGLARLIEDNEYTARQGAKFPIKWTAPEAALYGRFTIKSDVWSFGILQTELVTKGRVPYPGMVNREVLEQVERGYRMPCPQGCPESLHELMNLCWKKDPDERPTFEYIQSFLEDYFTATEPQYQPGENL
T3 sequence (P06239 whole entry): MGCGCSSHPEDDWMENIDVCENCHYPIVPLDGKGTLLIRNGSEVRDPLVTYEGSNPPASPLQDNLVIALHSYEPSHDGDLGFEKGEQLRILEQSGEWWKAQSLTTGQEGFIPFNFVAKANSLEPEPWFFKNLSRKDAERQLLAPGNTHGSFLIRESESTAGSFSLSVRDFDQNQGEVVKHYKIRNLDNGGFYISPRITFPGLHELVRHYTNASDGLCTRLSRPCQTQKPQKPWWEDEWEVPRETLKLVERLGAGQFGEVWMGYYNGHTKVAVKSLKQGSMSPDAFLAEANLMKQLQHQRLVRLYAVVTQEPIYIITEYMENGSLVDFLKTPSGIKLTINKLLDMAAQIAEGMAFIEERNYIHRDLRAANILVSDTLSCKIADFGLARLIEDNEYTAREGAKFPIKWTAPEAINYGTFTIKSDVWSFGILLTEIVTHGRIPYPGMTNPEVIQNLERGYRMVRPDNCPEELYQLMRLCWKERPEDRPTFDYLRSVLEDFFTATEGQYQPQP
T2 sequence (P12931 whole entry): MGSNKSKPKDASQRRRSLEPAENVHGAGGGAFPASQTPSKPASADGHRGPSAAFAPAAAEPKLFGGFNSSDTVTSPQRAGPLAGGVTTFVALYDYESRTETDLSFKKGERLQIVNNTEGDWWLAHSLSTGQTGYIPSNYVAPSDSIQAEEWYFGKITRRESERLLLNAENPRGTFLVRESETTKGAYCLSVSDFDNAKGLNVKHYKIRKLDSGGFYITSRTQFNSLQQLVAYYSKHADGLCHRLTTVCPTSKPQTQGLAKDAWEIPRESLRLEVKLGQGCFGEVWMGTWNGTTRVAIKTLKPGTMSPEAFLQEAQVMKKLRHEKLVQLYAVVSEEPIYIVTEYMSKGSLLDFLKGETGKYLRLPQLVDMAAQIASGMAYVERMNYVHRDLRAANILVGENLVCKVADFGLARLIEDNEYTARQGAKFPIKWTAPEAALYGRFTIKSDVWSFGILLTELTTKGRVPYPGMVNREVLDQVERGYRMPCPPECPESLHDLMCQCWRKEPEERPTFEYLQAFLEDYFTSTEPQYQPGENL

Structure (SMILES)	IC50 (human Yes1 enzyme)	IC50 (human Src enzyme)	IC50 (human Lck enzyme)
Cc1cc(-n2ncc(C(=O)c3cc4cc(OC[C@H](O)CO)c(Br)cc4[nH]3)c2N)ccc1Oc1ccccc1F [Example 5-1-237, (R)-(5-amino-1-(4-(2-fluorophenoxy)-3-methylphenyl)-1H-pyrazol-4-yl)(6-bromo-5-(2,3-dihydroxypropoxy)-1H-indol-2-yl)methanone]	1.5 nM	180 nM	36 nM
Cc1cc(-n2ncc(C(=O)c3cc4cc(OC5CCN(C(C)C)CC5)c(-c5cccs5)cc4[nH]3)c2N)ccc1Oc1ccccc1F [Example 5-1-238, [5-amino-1-[4-(2-fluorophenoxy)-3-methylphenyl]pyrazol-4-yl]-[5-(1-propan-2-ylpiperidin-4-yl)oxy-6-thiophen-2-yl-1H-indol-2-yl]methanone]	8.1 nM	860 nM	340 nM
Cc1cc(Oc2c(F)cccc2F)ncc1-n1ncc(C(=O)c2cc3cc(OC4CCN(C(C)C)CC4)c(-c4cccs4)cc3[nH]2)c1N [Example 5-1-239, [5-amino-1-[6-(2,6-difluorophenoxy)-4-methylpyridin-3-yl]pyrazol-4-yl]-[5-(1-propan-2-ylpiperidin-4-yl)oxy-6-thiophen-2-yl-1H-indol-2-yl]methanone]	5 nM	40 nM	16 nM
Cc1cc(-n2ncc(C(=O)c3cc4cc(OC5CCN(C(C)C)CC5)c(-c5cncnc5)cc4[nH]3)c2N)ccc1Oc1ccccc1F [Example 5-1-240, [5-amino-1-[4-(2-fluorophenoxy)-3-methylphenyl]pyrazol-4-yl]-[5-(1-propan-2-ylpiperidin-4-yl)oxy-6-pyrimidin-5-yl-1H-indol-2-yl]methanone]	2 nM	75 nM	19 nM
Cc1cc(Oc2c(F)cccc2F)ncc1-n1ncc(C(=O)c2cc3cc(OC4CCN(C(C)C)CC4)c(-c4cncnc4)cc3[nH]2)c1N [Example 5-1-241, [5-amino-1-[6-(2,6-difluorophenoxy)-4-methylpyridin-3-yl]pyrazol-4-yl]-[5-(1-propan-2-ylpiperidin-4-yl)oxy-6-pyrimidin-5-yl-1H-indol-2-yl]methanone]	1.8 nM	5.5 nM	6.1 nM
Cc1cc(-n2ncc(C(=O)c3cc4cc(OC[C@H](O)CO)c(NS(C)(=O)=O)cc4[nH]3)c2N)ccc1Oc1ccccc1F [Example 5-1-242, (R)—N-(2-(5-amino-1-(4-(2-fluorophenoxy)-3-methylphenyl)-1H-pyrazole-4-carbonyl)-5-(2,3-dihydroxypropoxy)-1H-indol-6-yl)methanesulfonamide]	1.9 nM	500 nM	160 nM
Cc1cc(Oc2ccccc2F)ccc1-n1ncc(C(=O)c2cc3cc(OCC(F)F)c(N4C(=O)OC[C@H]4Cc4ccccc4)cc3[nH]2)c1N [Example 5-1-244, (4R)-3-[2-[5-amino-1-[4-(2-fluorophenoxy)-2-methylphenyl]pyrazole-4-carbonyl]-5-(2,2-difluoroethoxy)-1H-indol-6-yl]-4-benzyl-1,3-oxazolidin-2-one]	9.9 nM	18 nM	40 nM
Cc1cc(Oc2ccccc2F)ccc1-n1ncc(C(=O)c2cc3cc(OCC(F)F)c(N4C(=O)OC[C@@H]4Cc4ccccc4)cc3[nH]2)c1N [Example 5-1-245, (4S)-3-[2-[5-amino-1-[4-(2-fluorophenoxy)-2-methylphenyl]pyrazole-4-carbonyl]-5-(2,2-difluoroethoxy)-1H-indol-6-yl]-4-benzyl-1,3-oxazolidin-2-one]	7.1 nM	23 nM	57 nM
COC(=O)[C@H](Cc1cnc[nH]1)NC(=O)Nc1cc2[nH]c(C(=O)c3cnn(-c4ccc(Oc5ccccc5F)cc4C)c3N)cc2cc1OCC(F)F [Example 5-1-246, Methyl (2S)-2-[[2-[5-amino-1-[4-(2-fluorophenoxy)-2-methylphenyl]pyrazole-4-carbonyl]-5-(2,2-difluoroethoxy)-1H-indol-6-yl]carbamoylamino]-3-(1H-imidazol-5-yl) propanoate]	1.6 nM	16 nM	7.1 nM
Cc1cc(-n2ncc(C(=O)c3cc4cc(OC5CCN(C(C)C)CC5)c(C5CCOCC5)cc4[nH]3)c2N)ccc1Oc1ccccc1F [Example 5-1-247, (5-amino-1-(4-(2-fluorophenoxy)-3-methylphenyl)-1H-pyrazol-4-yl)(5-((1-isopropylpiperidin-4-yl)oxy)-6-(tetrahydro-2H-pyran-4-yl)-1H-indol-2-yl)methanone]	2.1 nM	120 nM	34 nM
Cc1cc(Oc2c(F)cccc2F)ncc1-n1ncc(C(=O)c2cc3cc(OC4CCN(C(C)C)CC4)c(C4CCOCC4)cc3[nH]2)c1N [Example 5-1-248, [5-amino-1-[6-(2,6-difluorophenoxy)-4-methylpyridin-3-yl]pyrazol-4-yl]-[6-(oxan-4-yl)-5-(1-propan-2-ylpiperidin-4-yl)oxy-1H-indol-2-yl]methanone]	0.97 nM	7.9 nM	4.7 nM
Cc1cc(Oc2c(F)cccc2F)ncc1-n1ncc(C(=O)c2cc3cc(OC4CCN(C(C)C)CC4)c(-c4cnn(C)c4)cc3[nH]2)c1N [Example 5-1-249, [5-amino-1-[6-(2,6-difluorophenoxy)-4-methylpyridin-3-yl]pyrazol-4-yl]-[6-(1-methylpyrazol-4-yl)-5-(1-propan-2-ylpiperidin-4-yl)oxy-1H-indol-2-yl]methanone]	0.77 nM	7.4 nM	3.7 nM
Cc1cc(Oc2ccccc2F)ccc1-n1ncc(C(=O)c2cc3cc(OCC(F)F)c(N4C(=O)[C@@H]5C[C@@H](O)CN5C4=O)cc3[nH]2)c1N [Example 5-1-250]	0.76 nM	7.5 nM	2.8 nM
Cc1cc(Oc2ccccc2F)ccc1-n1ncc(C(=O)c2cc3cc(OCC(F)F)c(N4C(=O)N[C@@H](Cc5ccc(O)cc5)C4=O)cc3[nH]2)c1N [Example 5-1-251, (5S)-3-[2-[5-amino-1-[4-(2-fluorophenoxy)-2-methylphenyl]pyrazole-4-carbonyl]-5-(2,2-difluoroethoxy)-1H-indol-6-yl]-5-[(4-hydroxyphenyl)methyl]imidazolidine-2,4-dione]	3.8 nM	25 nM	15 nM
Cc1cc(Oc2ccccc2F)ccc1-n1ncc(C(=O)c2cc3cc(OCC(F)F)c(N4C(=O)[C@@H]5CCCN5C4=O)cc3[nH]2)c1N [Example 5-1-252, (7aS)-2-[2-[5-amino-1-[4-(2-fluorophenoxy)-2-methylphenyl]pyrazole-4-carbonyl]-5-(2,2-difluoroethoxy)-1H-indol-6-yl]-5,6,7,7a-tetrahydropyrrolo[1,2-c]imidazole-1,3-dione]	1.2 nM	14 nM	4.6 nM
Cc1cc(Oc2ccccc2F)ccc1-n1ncc(C(=O)c2cc3cc(OCC(F)F)c(N4C(=O)[C@@H]5C[C@H](NC(=O)OCC6c7ccccc7-c7ccccc76)CN5C4=O)cc3[nH]2)c1N [Example 5-1-253, 9H-fluoren-9-ylmethyl N-[(6S,7aS)-2-[2-[5-amino-1-[4-(2-fluorophenoxy)-2-methylphenyl]pyrazole-4-carbonyl]-5-(2,2-difluoroethoxy)-1H-indol-6-yl]-1,3-dioxo-5,6,7,7a-tetrahydropyrrolo[1,2-c]imidazol-6-yl] carbamate]	0.33 nM	23 nM	46 nM
Cc1cc(Oc2ccccc2F)ccc1-n1ncc(C(=O)c2cc3cc(OCC(F)F)c(N4C(=O)[C@@H]5C[C@H](NS(=O)(=O)CCCF)CN5C4=O)cc3[nH]2)c1N [Example 5-1-255, N-[(6S,7aS)-2-[2-[5-amino-1-[4-(2-fluorophenoxy)-2-methylphenyl]pyrazole-4-carbonyl]-5-(2,2-difluoroethoxy)-1H-indol-6-yl]-1,3-dioxo-5,6,7,7a-tetrahydropyrrolo[1,2-c]imidazol-6-yl]-3-fluoropropane-1-sulfonamide]	1.1 nM	8.9 nM	4.5 nM
Cc1cc(Oc2c(F)cccc2F)ncc1-n1ncc(C(=O)c2cc3cc(OCC(F)F)c(-c4cccs4)cc3[nH]2)c1N [Example 5-1-257, [5-amino-1-[6-(2,6-difluorophenoxy)-4-methylpyridin-3-yl]pyrazol-4-yl]-[5-(2,2-difluoroethoxy)-6-thiophen-2-yl-1H-indol-2-yl] methanone]	40 nM	250 nM	95 nM
Cc1cc(-n2ncc(C(=O)c3cc4cc(OCC(F)F)c(C5CCOCC5)cc4[nH]3)c2N)ccc1Oc1ccccc1F [Example 5-1-258, [5-amino-1-[4-(2-fluorophenoxy)-3-methylphenyl]pyrazol-4-yl]-[5-(2,2-difluoroethoxy)-6-(oxan-4-yl)-1H-indol-2-yl] methanone]	18 nM	2900 nM	720 nM
Cc1cc(Oc2c(F)cccc2F)ncc1-n1ncc(C(=O)c2cc3cc(OCC(F)F)c(C4CCOCC4)cc3[nH]2)c1N [Example 5-1-259, [5-amino-1-[6-(2,6-difluorophenoxy)-4-methylpyridin-3-yl]pyrazol-4-yl]-[5-(2,2-difluoroethoxy)-6-(oxan-4-yl)-1H-indol-2-yl] methanone]	7.5 nM	50 nM	25 nM
Cc1cc(Oc2ccccc2F)ccc1-n1ncc(C(=O)c2cc3cc(C(C)C)c(Br)cc3[nH]2)c1N [Example 5-1-260, [5-amino-1-[4-(2-fluorophenoxy)-2-methylphenyl]pyrazol-4-yl]-(6-bromo-5-propan-2-yl-1H-indol-2-yl)methanone]	8.5 nM	61 nM	44 nM
